Literature values as cited in patent publication US7010431B2, “Method for effecting computer implemented decision-support in the selection of the drug therapy of patients having a viral disease” (F. Hoffman-LaRoche Ltd., priority 2000, dated 2006).
Where two headings read alike, the source gives them in different places.

Key:
[1] = tested on: HIV reverse transcriptase (RT) substitutions; design: key: 0 (low resistance); 3 (high resistance)
[2] = tested on: HIV protease (P) substitutions; design: key: 0 (low resistance); 3 (high resistance)
[3] = substitution 48 V, drug level 100

Structure (SMILES): Cc1ccnc2c1NC(=O)c1cccnc1N2C1CC1 [NVP]
- resistance @ level ([1]; substitution 236, drug level 100): 0

Structure (SMILES): CC(C)(C)NC(=O)[C@@H]1C[C@@H]2CCCC[C@@H]2CN1C[C@@H](O)[C@H](Cc1ccccc1)NC(=O)[C@H](CC(N)=O)NC(=O)c1ccc2ccccc2n1 [FTV]
- resistance @ level [2, 3]: 1

Structure (SMILES): Nc1nc(NC2CC2)c2ncn([C@H]3C=C[C@@H](CO)C3)c2n1 [ABC]
- resistance @ level ([1]; substitution 184 + two of (41, 67, 70, 210, 215, 219), drug level 10000): 2

Structure (SMILES): Nc1ccn([C@@H]2CS[C@H](CO)O2)c(=O)n1 [3TC]
- resistance @ level ([1]; substitution 69SS + 215, drug level 100): 2

Structure (SMILES): CC(C)(C)NC(=O)[C@@H]1CN(Cc2cccnc2)CCN1C[C@@H](O)C[C@@H](Cc1ccccc1)C(=O)N[C@H]1c2ccccc2C[C@H]1O [IND]
- resistance @ level [2, 3]: 0
- resistance @ level ([2]; substitution 82A/F/T/S, drug level 100): 1

Structure (SMILES): Cc1cn([C@H]2C=C[C@@H](CO)O2)c(=O)[nH]c1=O [D4T]
- resistance @ level ([1]; substitution three of (41, 67, 70, 210, 215, 219), drug level 100): 1

Structure (SMILES): CC(C)CN(C[C@@H](O)[C@H](Cc1ccccc1)NC(=O)O[C@H]1CCOC1)S(=O)(=O)c1ccc(N)cc1 [AMP]
- resistance @ level ([2]; substitution 90M/I, drug level 10000): 1

Structure (SMILES): Cc1c(O)cccc1C(=O)N[C@@H](CSc1ccccc1)[C@H](O)CN1C[C@H]2CCCC[C@H]2C[C@H]1C(=O)NC(C)(C)C [NFV]
- resistance @ level ([2]; substitution 84 + 90 + 46, drug level 100): 3

Structure (SMILES): Cc1cn([C@H]2C[C@H](N=[N+]=[N-])[C@@H](CO)O2)c(=O)[nH]c1=O [ZDV]
- resistance @ level ([1]; substitution 215Y/F + 41, drug level 100): 3
